In the assay the test system is MDA-MB-231 (Breast). The assay can be described thus: 48 hr cytotoxicity, MDA-MB-231. In kind it is cell-based, human. As to the method:
B16-F10 (ATCC; CRL-6475), DU 145 (ATCC; HTB-81), HEK293 (ATCC; CRL-1573), HT-29 (ATCC; HTB-38), LoVo (ATCC; CCL-229), MDA-MB-231 (ATCC; HTB-26), MIA PaCa-2 (ATCC; CRL-1420), NCI-H292 (ATCC; CRL-1848), OVCAR-3 (ATCC, HTB-161), PANC-1 (ATCC; CRL-1469), PC-3 (ATCC; CRL-1435), RPMI 8226 (ATCC; CCL-155) and U266 (ATCC; TIB-196) are maintained in appropriate culture media. The cells are cultured in an incubator at 37° C. in 5% CO2 and 95% humidified air.
For cell growth inhibition assays, B16-F10, DU 145, HEK293, HT-29, LoVo, MDA-MB-231, MIA PaCa-2, NCI-H292, OVCAR-3, PANC-1, PC-3, RPMI 8226 and U266 cells are seeded at 1.25×10^3, 5×10^3, 1.5×10^4, 5×10^3, 5×10^3, 1×10^4, 2×10^3, 4×10^3, 1×10^4, 7.5×10^3, 5×10^3, 2×10^4, 2.5×10^4 cells/well respectively in 90 μl complete media into Corning 3904 black-walled, clear-bottom tissue culture plates. 20 mM stock solutions of compounds of Formula II, IIA, and IIB are prepared in 100% DMSO, aliquoted and stored at −80° C. Compounds of Formula II, IIA, and IIB are serially diluted and added in triplicate to the test wells resulting in final concentrations ranging from of 20 μM to 0.2 pM. […]
Following 48 hours of drug exposure, 10 μl of 0.2 mg/ml resazurin (obtained from Sigma-Aldrich Chemical Co.) in Mg^2+, Ca^2+ free phosphate buffered saline is added to each well and the plates are returned to the incubator for 3-6 hours. Since living cells metabolize Resazurin, the fluorescence of the reduction product of Resazurin is measured using a Fusion microplate fluorometer (Packard Bioscience) with λex=535 nm and λem=590 nm filters. […]
The cytotoxicity assays were performed by seeding individual cell lines at appropriate density in the 96 well flat-bottomed plates and allowed to attach for 24 hours at 37° C., 5% CO2 and 95% humidified air (RPMI 8226 and U266 cells were plated in 96 well plates on the day of compound addition). […] Cell viability was assessed 48 hours later by measuring the fluorescence of the reduction product of Resazurin by a Fusion microplate fluorometer (PerkinElmer) with λex=535 nm and λem=590 nm filters. […]

Molecules are shown by their SMILES. Read-outs that look alike come from different tables or passages of the source.

The record followed here is US7893299B2, “Interleukin-1 and tumor necrosis factor-αmodulators; syntheses of such modulators and methods of using such modulators” (Nereus Pharmaceuticals, Inc., priority 2005, dated 2011).

Compound `C=CC(=O)C1(C)CCCC2(C)C3=CCC(C)(C=C)C[C@@H]3CC[C@H]12` (stereo in doubt) [NPI-1387, 1-[(1S,4aS,7R)-1,4a,7-Trimethyl-7-vinyl-1,2,3,4,4a,6,7,8,8a,9,10,10a-dodecahydro-1-phenanthrenyl]-2-propen-1-one] came in with an IC50 of 15 ± 4 µM. For the setting “Homo sapiens, MDA-MB-231, 48 h”, inhibition was half-maximal at 18 ± 2 µM (IC50).

In general, IC50 refers to the concentration that inhibits the measured activity by half.
